Assays:
[1] = tested on: Tyrosine-protein kinase ABL1 (Homo sapiens), P00519 [F317I]; settings: Compound concentration 1000.0 nM
[2] = tested on: Tyrosine-protein kinase ABL1 (Homo sapiens), P00519 [Q252H]; settings: Compound concentration 1000.0 nM
[3] = molecular target: Activin receptor type-1-like (Homo sapiens) (UniProt P37023); settings: Compound concentration 1000.0 nM
[4] = molecular target: ALK tyrosine kinase receptor (Homo sapiens) (UniProt Q9UM73); settings: Compound concentration 1000.0 nM
[5] = molecular target: Serine/threonine-protein kinase B-raf (Homo sapiens) (UniProt P15056); settings: Compound concentration 1000.0 nM
[6] = molecular target: Tyrosine-protein kinase BTK (Homo sapiens) (UniProt Q06187); settings: Compound concentration 1000.0 nM
[7] = molecular target: Cyclin-dependent kinase-like 1 (Homo sapiens) (UniProt Q00532); settings: Compound concentration 1000.0 nM
[8] = molecular target: Casein kinase I isoform alpha (Homo sapiens) (UniProt P48729); settings: Compound concentration 1000.0 nM
Casein kinase I isoform alpha (Homo sapiens), sequence (P48729 2-337 limits assumed): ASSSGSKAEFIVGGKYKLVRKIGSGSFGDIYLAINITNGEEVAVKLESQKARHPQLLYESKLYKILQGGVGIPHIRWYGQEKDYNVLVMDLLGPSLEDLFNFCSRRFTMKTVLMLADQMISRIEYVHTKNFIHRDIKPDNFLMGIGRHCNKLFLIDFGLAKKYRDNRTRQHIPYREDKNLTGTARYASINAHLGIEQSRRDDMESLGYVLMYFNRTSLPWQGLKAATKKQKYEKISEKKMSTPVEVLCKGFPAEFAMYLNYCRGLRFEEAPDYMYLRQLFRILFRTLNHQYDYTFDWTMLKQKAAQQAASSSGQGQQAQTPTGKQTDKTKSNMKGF

[9] = molecular target: Serine/threonine-protein kinase DCLK1 (Homo sapiens) (UniProt O15075); settings: Compound concentration 1000.0 nM
[10] = molecular target: Serine/threonine-protein kinase MRCK gamma (Homo sapiens) (UniProt Q6DT37); settings: Compound concentration 1000.0 nM
[11] = tested on: Epidermal growth factor receptor (Homo sapiens), P00533 [UNDEFINED MUTATION]; settings: Compound concentration 1000.0 nM
Epidermal growth factor receptor (Homo sapiens), P00533 [UNDEFINED MUTATION], sequence (P00533 whole entry, looked up, change not shown): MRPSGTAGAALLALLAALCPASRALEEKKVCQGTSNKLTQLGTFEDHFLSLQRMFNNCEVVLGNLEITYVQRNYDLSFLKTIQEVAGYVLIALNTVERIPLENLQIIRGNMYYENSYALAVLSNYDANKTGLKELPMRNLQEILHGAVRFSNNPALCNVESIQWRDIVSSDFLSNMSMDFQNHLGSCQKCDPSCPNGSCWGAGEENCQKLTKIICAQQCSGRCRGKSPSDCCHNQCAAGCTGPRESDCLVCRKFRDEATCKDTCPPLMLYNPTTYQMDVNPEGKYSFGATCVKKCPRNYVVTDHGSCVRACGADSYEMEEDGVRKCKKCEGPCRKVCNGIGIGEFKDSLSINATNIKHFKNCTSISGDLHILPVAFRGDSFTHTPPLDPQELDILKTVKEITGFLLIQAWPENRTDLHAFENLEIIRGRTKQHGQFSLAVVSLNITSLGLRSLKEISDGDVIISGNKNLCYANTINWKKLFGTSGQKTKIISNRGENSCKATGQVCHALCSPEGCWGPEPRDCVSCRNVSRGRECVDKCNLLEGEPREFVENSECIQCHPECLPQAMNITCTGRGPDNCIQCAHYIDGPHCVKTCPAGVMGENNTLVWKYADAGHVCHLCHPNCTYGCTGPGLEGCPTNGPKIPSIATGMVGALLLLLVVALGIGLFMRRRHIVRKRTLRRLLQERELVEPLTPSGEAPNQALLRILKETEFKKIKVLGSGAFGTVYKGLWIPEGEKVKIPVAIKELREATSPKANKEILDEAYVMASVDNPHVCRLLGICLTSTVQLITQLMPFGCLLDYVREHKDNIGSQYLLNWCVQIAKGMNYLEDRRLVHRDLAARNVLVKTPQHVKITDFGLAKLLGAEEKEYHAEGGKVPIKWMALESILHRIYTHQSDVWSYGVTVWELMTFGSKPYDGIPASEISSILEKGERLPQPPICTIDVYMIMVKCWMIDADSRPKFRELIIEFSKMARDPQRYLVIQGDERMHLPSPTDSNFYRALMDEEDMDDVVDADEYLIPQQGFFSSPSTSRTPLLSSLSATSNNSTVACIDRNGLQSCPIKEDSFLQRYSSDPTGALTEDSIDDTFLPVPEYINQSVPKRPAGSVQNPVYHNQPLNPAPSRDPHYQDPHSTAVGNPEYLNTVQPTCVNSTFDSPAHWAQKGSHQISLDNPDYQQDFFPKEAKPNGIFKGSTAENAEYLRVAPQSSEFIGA

[12] = molecular target: Ephrin type-B receptor 2 (Homo sapiens) (UniProt P29323); settings: Compound concentration 1000.0 nM
[13] = molecular target: Rhodopsin kinase GRK7 (Homo sapiens) (UniProt Q8WTQ7); settings: Compound concentration 1000.0 nM
Rhodopsin kinase GRK7 (Homo sapiens), sequence (Q8WTQ7 whole entry): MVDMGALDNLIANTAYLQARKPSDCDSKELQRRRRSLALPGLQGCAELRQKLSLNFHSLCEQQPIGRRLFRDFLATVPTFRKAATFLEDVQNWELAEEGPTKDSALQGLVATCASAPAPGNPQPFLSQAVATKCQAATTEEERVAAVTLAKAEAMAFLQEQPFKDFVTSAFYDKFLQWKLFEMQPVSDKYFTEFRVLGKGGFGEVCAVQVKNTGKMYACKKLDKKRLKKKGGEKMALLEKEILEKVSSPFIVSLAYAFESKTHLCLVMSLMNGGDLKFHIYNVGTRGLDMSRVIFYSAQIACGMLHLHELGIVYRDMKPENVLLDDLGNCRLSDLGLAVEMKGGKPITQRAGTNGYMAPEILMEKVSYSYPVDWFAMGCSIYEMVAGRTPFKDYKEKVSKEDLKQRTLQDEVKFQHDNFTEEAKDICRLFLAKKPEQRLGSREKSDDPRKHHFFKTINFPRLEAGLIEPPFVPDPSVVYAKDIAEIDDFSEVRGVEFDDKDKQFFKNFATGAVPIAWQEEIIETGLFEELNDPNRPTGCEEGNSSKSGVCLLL

[14] = molecular target: Glycogen synthase kinase-3 beta (Homo sapiens) (UniProt P49841); settings: Compound concentration 1000.0 nM
[15] = molecular target: Insulin-like growth factor 1 receptor (Homo sapiens) (UniProt P08069); settings: Compound concentration 1000.0 nM
[16] = molecular target: Mitogen-activated protein kinase 9 (Homo sapiens) (UniProt P45984); settings: Compound concentration 1000.0 nM
Mitogen-activated protein kinase 9 (Homo sapiens), sequence (P45984 whole entry, looked up): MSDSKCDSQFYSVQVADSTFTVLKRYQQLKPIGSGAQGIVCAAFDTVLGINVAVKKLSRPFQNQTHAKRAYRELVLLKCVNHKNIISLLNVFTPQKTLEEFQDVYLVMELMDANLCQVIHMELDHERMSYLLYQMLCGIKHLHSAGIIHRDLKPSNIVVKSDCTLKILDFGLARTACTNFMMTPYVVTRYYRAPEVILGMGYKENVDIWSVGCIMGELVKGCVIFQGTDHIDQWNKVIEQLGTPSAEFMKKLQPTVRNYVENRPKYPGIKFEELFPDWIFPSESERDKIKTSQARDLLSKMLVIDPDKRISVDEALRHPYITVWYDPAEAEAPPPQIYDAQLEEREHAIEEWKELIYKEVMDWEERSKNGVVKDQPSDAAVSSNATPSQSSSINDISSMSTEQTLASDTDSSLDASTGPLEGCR

[17] = tested on: Mast/stem cell growth factor receptor Kit (Homo sapiens), P10721 [V559D,T670I]; settings: Compound concentration 1000.0 nM
[18] = molecular target: Serine/threonine-protein kinase 10 (Homo sapiens) (UniProt O94804); settings: Compound concentration 1000.0 nM
[19] = molecular target: MAP/microtubule affinity-regulating kinase 4 (Homo sapiens) (UniProt Q96L34); settings: Compound concentration 1000.0 nM
[20] = molecular target: Dual specificity mitogen-activated protein kinase kinase 3 (Homo sapiens) (UniProt P46734); settings: Compound concentration 1000.0 nM
[21] = molecular target: Dual specificity mitogen-activated protein kinase kinase 6 (Homo sapiens) (UniProt P52564); settings: Compound concentration 1000.0 nM
[22] = molecular target: Hepatocyte growth factor receptor (Homo sapiens) (UniProt P08581); settings: Compound concentration 1000.0 nM
[23] = molecular target: Dual specificity mitogen-activated protein kinase kinase 7 (Homo sapiens) (UniProt O14733); settings: Compound concentration 1000.0 nM
[24] = molecular target: MAP kinase-interacting serine/threonine-protein kinase 1 (Homo sapiens) (UniProt Q9BUB5); settings: Compound concentration 1000.0 nM
[25] = molecular target: Serine/threonine-protein kinase 3 (Homo sapiens) (UniProt Q13188); settings: Compound concentration 1000.0 nM
[26] = molecular target: Serine/threonine-protein kinase 24 (Homo sapiens) (UniProt Q9Y6E0); settings: Compound concentration 1000.0 nM
[27] = molecular target: Cyclin-dependent kinase 14 (Homo sapiens) (UniProt O94921); settings: Compound concentration 1000.0 nM
Cyclin-dependent kinase 14 (Homo sapiens), sequence (O94921 whole entry): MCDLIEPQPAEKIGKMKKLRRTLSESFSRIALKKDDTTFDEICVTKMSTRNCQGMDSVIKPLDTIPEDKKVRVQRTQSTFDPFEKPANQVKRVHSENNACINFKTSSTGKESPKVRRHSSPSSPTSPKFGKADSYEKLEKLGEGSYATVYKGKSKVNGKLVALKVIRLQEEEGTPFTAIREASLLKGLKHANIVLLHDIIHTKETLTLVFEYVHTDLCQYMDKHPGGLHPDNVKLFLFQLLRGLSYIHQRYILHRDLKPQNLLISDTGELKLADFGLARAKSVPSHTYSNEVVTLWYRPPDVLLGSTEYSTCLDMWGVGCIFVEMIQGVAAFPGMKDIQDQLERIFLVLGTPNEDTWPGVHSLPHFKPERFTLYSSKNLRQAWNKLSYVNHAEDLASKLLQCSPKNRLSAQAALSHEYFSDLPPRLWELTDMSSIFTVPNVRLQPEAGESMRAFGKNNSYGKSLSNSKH

[28] = molecular target: Serine/threonine-protein kinase PLK4 (Homo sapiens) (UniProt O00444); settings: Compound concentration 1000.0 nM
[29] = molecular target: Protein kinase C eta type (Homo sapiens) (UniProt P24723); settings: Compound concentration 1000.0 nM
[30] = molecular target: Receptor-interacting serine/threonine-protein kinase 1 (Homo sapiens) (UniProt Q13546); settings: Compound concentration 1000.0 nM
[31] = molecular target: Receptor-interacting serine/threonine-protein kinase 2 (Homo sapiens) (UniProt O43353); settings: Compound concentration 1000.0 nM
[32] = molecular target: Ribosomal protein S6 kinase alpha-5 (Homo sapiens) (UniProt O75582); settings: Compound concentration 1000.0 nM
Ribosomal protein S6 kinase alpha-5 (Homo sapiens), sequence (O75582 whole entry, looked up): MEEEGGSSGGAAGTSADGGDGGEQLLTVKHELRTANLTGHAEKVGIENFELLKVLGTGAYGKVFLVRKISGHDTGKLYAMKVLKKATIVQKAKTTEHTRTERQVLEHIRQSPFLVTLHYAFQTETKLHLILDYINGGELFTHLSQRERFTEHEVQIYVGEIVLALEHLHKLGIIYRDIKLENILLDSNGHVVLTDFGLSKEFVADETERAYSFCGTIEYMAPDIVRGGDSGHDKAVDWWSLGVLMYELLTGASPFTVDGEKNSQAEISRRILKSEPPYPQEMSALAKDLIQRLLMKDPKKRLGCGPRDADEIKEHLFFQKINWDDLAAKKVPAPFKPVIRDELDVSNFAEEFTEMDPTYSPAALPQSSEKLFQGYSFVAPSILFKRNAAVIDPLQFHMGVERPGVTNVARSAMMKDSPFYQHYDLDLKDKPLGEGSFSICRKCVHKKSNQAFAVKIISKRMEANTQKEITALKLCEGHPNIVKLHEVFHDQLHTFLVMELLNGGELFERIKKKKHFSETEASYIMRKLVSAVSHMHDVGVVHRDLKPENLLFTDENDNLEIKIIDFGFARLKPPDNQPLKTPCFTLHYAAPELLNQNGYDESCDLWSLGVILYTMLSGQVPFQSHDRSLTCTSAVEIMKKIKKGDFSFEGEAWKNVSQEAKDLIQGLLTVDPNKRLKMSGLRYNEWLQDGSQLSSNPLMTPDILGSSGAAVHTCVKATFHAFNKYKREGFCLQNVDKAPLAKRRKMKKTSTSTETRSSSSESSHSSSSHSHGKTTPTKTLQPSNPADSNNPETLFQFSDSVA

[33] = molecular target: Ribosomal protein S6 kinase alpha-3 (Homo sapiens) (UniProt P51812); settings: Compound concentration 1000.0 nM
[34] = molecular target: SRSF protein kinase 3 (Homo sapiens) (UniProt Q9UPE1); settings: Compound concentration 1000.0 nM
[35] = molecular target: Serine/threonine-protein kinase 36 (Homo sapiens) (UniProt Q9NRP7); settings: Compound concentration 1000.0 nM
[36] = molecular target: Tyrosine-protein kinase receptor Tie-1 (Homo sapiens) (UniProt P35590); settings: Compound concentration 1000.0 nM
[37] = molecular target: Angiopoietin-1 receptor (Homo sapiens) (UniProt Q02763); settings: Compound concentration 1000.0 nM
[38] = molecular target: Serine/threonine-protein kinase tousled-like 2 (Homo sapiens) (UniProt Q86UE8); settings: Compound concentration 1000.0 nM
[39] = molecular target: Tyrosine-protein kinase TXK (Homo sapiens) (UniProt P42681); settings: Compound concentration 1000.0 nM
[40] = molecular target: Serine/threonine-protein kinase ULK1 (Homo sapiens) (UniProt O75385); settings: Compound concentration 1000.0 nM
[41] = molecular target: Serine/threonine-protein kinase WNK4 (Homo sapiens) (UniProt Q96J92); settings: Compound concentration 1000.0 nM
Serine/threonine-protein kinase WNK4 (Homo sapiens), sequence (Q96J92 whole entry): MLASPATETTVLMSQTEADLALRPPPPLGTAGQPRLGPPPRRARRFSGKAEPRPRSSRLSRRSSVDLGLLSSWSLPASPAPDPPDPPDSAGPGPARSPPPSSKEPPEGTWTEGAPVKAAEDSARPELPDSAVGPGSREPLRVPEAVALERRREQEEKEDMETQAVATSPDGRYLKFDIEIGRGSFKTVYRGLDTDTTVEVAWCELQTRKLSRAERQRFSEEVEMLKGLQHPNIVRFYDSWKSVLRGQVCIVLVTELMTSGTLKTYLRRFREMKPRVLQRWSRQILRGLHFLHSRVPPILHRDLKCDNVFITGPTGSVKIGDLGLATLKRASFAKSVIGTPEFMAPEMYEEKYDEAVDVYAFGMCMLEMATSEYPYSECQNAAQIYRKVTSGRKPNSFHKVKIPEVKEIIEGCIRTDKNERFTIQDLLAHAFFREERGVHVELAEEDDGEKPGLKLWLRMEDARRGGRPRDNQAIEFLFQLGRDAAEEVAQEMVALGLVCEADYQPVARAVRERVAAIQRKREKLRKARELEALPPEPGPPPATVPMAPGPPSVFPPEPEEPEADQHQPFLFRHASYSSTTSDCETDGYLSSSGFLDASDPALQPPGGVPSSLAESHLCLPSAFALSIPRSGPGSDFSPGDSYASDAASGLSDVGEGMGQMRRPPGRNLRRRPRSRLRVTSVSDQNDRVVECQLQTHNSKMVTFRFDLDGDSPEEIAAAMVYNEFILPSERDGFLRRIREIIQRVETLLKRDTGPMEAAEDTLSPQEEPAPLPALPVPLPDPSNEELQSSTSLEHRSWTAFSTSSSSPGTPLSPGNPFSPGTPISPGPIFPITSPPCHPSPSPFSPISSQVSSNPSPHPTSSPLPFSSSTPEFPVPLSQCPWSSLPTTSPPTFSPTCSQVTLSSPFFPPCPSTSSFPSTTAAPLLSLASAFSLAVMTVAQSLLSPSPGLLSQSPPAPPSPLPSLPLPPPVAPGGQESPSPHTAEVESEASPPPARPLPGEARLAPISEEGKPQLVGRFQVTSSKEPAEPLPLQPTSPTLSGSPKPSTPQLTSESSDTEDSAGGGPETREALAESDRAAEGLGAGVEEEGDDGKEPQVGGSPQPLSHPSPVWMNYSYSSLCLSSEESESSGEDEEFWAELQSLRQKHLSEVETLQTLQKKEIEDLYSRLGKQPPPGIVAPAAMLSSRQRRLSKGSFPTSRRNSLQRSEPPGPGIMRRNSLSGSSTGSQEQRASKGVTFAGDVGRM

[42] = molecular target: Serine/threonine-protein kinase 32C (Homo sapiens) (UniProt Q86UX6); settings: Compound concentration 1000.0 nM
[43] = molecular target: Histamine H3 receptor (Homo sapiens) (UniProt Q9Y5N1); settings: Compound concentration 10.0 uM
[44] = molecular target: Alpha-2C adrenergic receptor (Homo sapiens) (UniProt P18825); settings: Compound concentration 10.0 uM
[45] = molecular target: Muscarinic acetylcholine receptor M2 (Homo sapiens) (UniProt P08172); settings: Compound concentration 10.0 uM

CC(=O)c1c(NS(C)(=O)=O)c2cc(-c3ccc(Cl)cc3)c(-c3ccc(Cl)cc3Cl)nc2n(C)c1=O [MRL-CB1-NC]
residual activity [1]: 76% | residual activity [2]: 100% | residual activity [3]: 100% | residual activity [4]: 95% | residual activity [5]: 90% | residual activity [6]: 84% | residual activity [7]: 91% | residual activity [8]: 100% | residual activity [9]: 98% | residual activity [10]: 100% | residual activity [11]: 100% | residual activity [12]: 100% | residual activity [13]: 83% | residual activity [14]: 97% | residual activity [15]: 100% | residual activity [16]: 67% | residual activity [17]: 100% | residual activity [18]: 100% | residual activity [19]: 100% | residual activity [20]: 96% | residual activity [21]: 100% | residual activity [22]: 100% | residual activity [23]: 100% | residual activity [24]: 100% | residual activity [25]: 100% | residual activity [26]: 97% | residual activity [27]: 100% | residual activity [28]: 100% | residual activity [29]: 91% | residual activity [30]: 97% | residual activity [31]: 96% | residual activity [32]: 100% | residual activity [33]: 100% | residual activity [34]: 100% | residual activity [35]: 100% | residual activity [36]: 100% | residual activity [37]: 90% | residual activity [38]: 99% | residual activity [39]: 100% | residual activity [40]: 67% | residual activity [41]: 96% | residual activity [42]: 100% | inhibition [43]: 0.553% | inhibition [44]: 78.9% | inhibition [45]: -4.45%

CC(=O)Nc1c(C(C)=O)c(=O)n(C)c2nc(-c3ccc(Cl)cc3Cl)c(-c3ccc(Cl)cc3)cc12 [NAPHTHYRIDINONE]
residual activity [1]: 77% | residual activity [2]: 100% | residual activity [3]: 100% | residual activity [4]: 100% | residual activity [5]: 100% | residual activity [6]: 88% | residual activity [7]: 100% | residual activity [8]: 100% | residual activity [9]: 100% | residual activity [10]: 100% | residual activity [11]: 100% | residual activity [12]: 100% | residual activity [13]: 100% | residual activity [14]: 100% | residual activity [15]: 100% | residual activity [16]: 100% | residual activity [17]: 100% | residual activity [18]: 100% | residual activity [19]: 100% | residual activity [20]: 86% | residual activity [21]: 100% | residual activity [22]: 100% | residual activity [23]: 100% | residual activity [24]: 100% | residual activity [25]: 100% | residual activity [26]: 100% | residual activity [27]: 100% | residual activity [28]: 100% | residual activity [29]: 100% | residual activity [30]: 100% | residual activity [31]: 100% | residual activity [32]: 100% | residual activity [33]: 99% | residual activity [34]: 100% | residual activity [35]: 92% | residual activity [36]: 100% | residual activity [37]: 91% | residual activity [38]: 100% | residual activity [39]: 100% | residual activity [40]: 66% | residual activity [41]: 100% | residual activity [42]: 100% | inhibition [43]: -2.68% | inhibition [44]: 3.44% | inhibition [45]: -7.96%

From ChEMBL document CHEMBL4507287, “Data for DCP probe MRL-650” (2021)
